{"source": "patent US7585843B2", "about": "“Treatment of demyelinating autoimmune disease with modified ordered peptides” (Bayhill Therapeutics, Inc., priority 2003, dated 2009)", "key": {"[1]": {"tested_on": "anti-MBP antibodies affinity-purified from CNS lesions", "assay": "Inhibition of autoantibody binding to MBP", "design": "species or system human", "conditions": "antibodies from CNS lesions of 12 post-mortem MS cases", "excerpt": "Previously, we have compared the structural requirements for autoantibody recognition to those of T cell clones reactive to MBP p87-99. Anti-MBP antibodies were affinity-purified from CNS lesions of 12 post-mortem cases studied. The MBP p87-99 peptide was immunodominant in all cases and it inhibited autoantibody binding to MBP by more than 95%. Residues contributing to autoantibody binding were located in a 10-amino acid segment p86-95 ({SEQ ID NO:9} VVHFFKNIVT) that also contained the MHC-T cell receptor contact residues for T cells recognizing MBP in the context of DRB1*1501 and DQB1*0602. In the epitope center, the same residues, {SEQ ID NO:10} VHFFK, were important for T cell binding and MHC recognition. Recently, the crystal structure of HLA-DR2 with MBPp85-99 was solved, confirming the prediction that K91 is the major TCR contact residue, while F90 is a major anchor into the hydrophobic P4 pocket of the MHC molecule."}, "mouse MHC class II": {"tested_on": "mouse MHC class II", "assay": "Blocking of native peptide binding to MHC by FACS (FIG. 3), mouse", "conditions": "biotinylated peptide on spleen APCs", "experimental": "(§1) The ability of MBP therapeutic ordered peptide EYYKEYYKEYYK, substituted MBP therapeutic ordered peptide D-Ala-EYYKEYYKEYYK-amide, or Copaxone to block the binding of the native peptide to either a mouse or rat MHC was measured by FACS analysis.\n(§2) Peptide binding to class II molecules was measured as follows. Briefly, APCs (antigen presenting cells) were purified from spleen cells by negative selection using magnetic beads (Dynal, Oslo, Norway) conjugated with antibodies specific for T cells (CD52), macrophages (CD45R), and NK cells (NKR-P1A) (Pharmingen, San Diego, Calif.). After selection, cells were plated at a concentration of 0.5×10^6 cells per well in flat bottom 96 well microtiter plates (Costar, Corning, N.Y.). Therapeutic ordered peptides were used as inhibitors are added to the wells at different concentrations (ranging from 0.01 to 0.24 mM) in a volume of 0.05 ml. After an hour of incubation at 37° C., 0.01 mM of biotinylated MBP, MOG, or PLP peptide was added. After four more hours of incubation, cells were harvested and binding of PE-Avidin to the cell surface was analyzed by FACS (Becton Dickinson, San Jose, Calif.). To determine the IC50 value of the therapeutic ordered peptide, for example EYYK, a linear regression curve was calculated using data points from 0.01 mM to […]."}, "EAE in mice": {"tested_on": "EAE in mice", "assay": "Relapse rates in mice with ongoing EAE induced with PLPp139-151 (FIG. 2)", "assay_type": "in vivo", "conditions": "PLPp139-151-induced EAE; treated days 17, 29, 36; i.v., i.p. or s.c.; 0.5 or 0.05 mg per mouse; in mannitol", "experimental": "FIG. 2 is a graph depicting the reduction in relapse rates in mice with EAE treated with ordered peptides. Animals were induced for EAE with an emulsion of 0.1 mg of PLPp139-151 in complete Freund's adjuvant (day 0). Mice were randomized into equal groups at the peak of disease and were treated at days 17, 29, and 36 after EAE induction with intravenous, intra-peritoneal or subcutaneous administration of EYYKEYYKEYYK (MBP therapeutic ordered peptide) or Copaxone at two different dosages, 0.5 mg per mouse or 0.05 mg per mouse. Both the MBP therapeutic ordered peptide and Copaxone were dissolved in mannitol.\nInjection of ordered peptides containing TCR-MHC binding motifs reverse the development of EAE. In order to test the potential of the predicted sequences to revert the development of ongoing EAE we delivered a single dose of a PBS solution containing 0.5 mg of peptide in 0.25 ml. […] In addition, ordered peptide treatment was administered in a mouse model of ongoing-EAE (FIG. 2) at days 17, 29, and 36 after EAE induction with intravenous, intra-peritoneal or subcutaneous administration of EYYKEYYKEYYK (therapeutic ordered peptide) or Copaxone at two different dosages, 0.5 mg per mouse or 0.05 mg per mouse. Both the therapeutic ordered peptide and Copaxone were dissolved in mannitol."}, "EAE in Lewis rats [2]": {"tested_on": "EAE in Lewis rats", "assay": "EAE treatment in Lewis rats, single dose at disease onset (FIG. 1)", "assay_type": "in vivo, rat", "conditions": "MBPp85-99-induced EAE, single intraperitoneal dose 0.5 mg in PBS at disease onset (day 10)", "experimental": "FIG. 1 is a graph showing the prevention of EAE in rats treated with therapeutic ordered peptides. […] Animals were injected with an emulsion of 0.1 mg of MBPp85-99 in complete Freund's adjuvant for EAE induction. Ten days later, when the clinical manifestations of disease became apparent, a single intra-peritoneal dose of MBP therapeutic ordered peptide {SEQ ID NO:4} EYYKEYYKEYYK (squares), {SEQ ID NO:5} KYYKYYKYYKYY (triangles), or PBS (circles)was administered. Results are expressed as mean disease score of groups of six animals.\nAnimals. Female Lewis rats (6-8 weeks old), were purchased from Harlan Sprague Dawley (Indianapolis, Ind.)\n(§3) EAE induction. Synthetic peptide MBPp85-99 was dissolved in PBS to a concentration of 2 mg/ml and emulsified with and equal volume of Incomplete Freund's Adjuvant (IFA), supplemented with 4 mg/ml heat-killed Mycobacterium tuberculosis H37Ra (Difco Laboratories, Detroit, Mich.). Rats were injected subcutaneously with 0.1 ml of the peptide emulsion. Experimental animals were scored as follows: 0, no clinical disease; 1, tail weakness or paralysis; 2, hind limb weakness; 3, hind limb paralysis; 4, forelimb weakness or paralysis; 5, moribund or dead animal.\nEAE treatment. Rats previously immunized with MBPp85-99 for EAE induction were scored from day eight after peptide injection. […]"}, "rat MHC class II": {"tested_on": "rat MHC class II", "assay": "Blocking of native peptide binding to MHC by FACS (FIG. 3), rat", "conditions": "biotinylated peptide on spleen APCs", "experimental": "as §1, §2"}, "[3]": {"tested_on": "T cell lines from immunized mice", "assay": "Cytokine production by T cell lines from immunized mice (FIG. 6)", "assay_type": "cell-based", "conditions": "T cell lines from mice immunized with the antigen", "excerpt": "OVA is known to cause an induction of Th1 type of T cells after immunization.\nOne of the mechanisms proposed for the efficacy of Copaxone in MS is the induction of Th2 type of antigen-specific T cells that are beneficial in treating the disease process.\nIn a similar protocol we immunized mice with D-ala modified ordered peptide, non-modified ordered peptide, and control peptides including Cop1 and ovalbumin (OVA). OVA is known to cause an induction of Th1 type of T cells after immunization."}, "EAE in Lewis rats [4]": {"tested_on": "EAE in Lewis rats", "assay": "Blocking of EAE induction in Lewis rats, peptide mixed into encephalitogenic emulsion (FIG. 5)", "assay_type": "in vivo, rat", "conditions": "0.5 mg mixed into MBPp85-99/CFA emulsion, 12-13 animals", "experimental": "FIG. 5 is a graph showing the blocking of induction of EAE by the substituted D-Ala form of the therapeutic ordered peptide. Lewis rats were injected with an emulsion of 0.1 mg of MBPp85-99 in complete Freund's adjuvant for EAE induction. Either of 0.5 mg MBP therapeutic ordered peptide EYYKEYYKEYYK, substituted MBP therapeutic ordered peptide D-Ala-EYYKEYYKEYYK-amide, or Copaxone was mixed into the encephalitogenic emulsion. Results are expressed as mean disease score of 12-13 animals.\nas §3\nThe ability of therapeutic ordered peptide EYYKEYYKEYYK, modified therapeutic ordered peptide D-Ala-EYYKEYYKEYYK-amide, or Copaxone to treat a rat model of EAE was tested. A single 0.5 mg dose of each of these peptides was administered along with the encephalitogen (MBP 85-99 peptide in CFA) as an emulsion."}, "[5]": {"tested_on": "PLPp139-151 specific T cell line", "assay": "T cell proliferation assay (FIG. 4)", "assay_type": "cell-based", "experimental": "FIG. 4 is a graph showing the blocking by the therapeutic ordered peptide of T cell proliferation. The ability of MBP therapeutic ordered peptide (EYYKEYYKEYYK), substituted MBP therapeutic ordered peptide (D-Ala-EYYKEYYKEYYK-amide), or Copaxone to block the proliferation of a PLPp139-151 specific T cell line was measured in a proliferation assay.\nThe ability of therapeutic ordered peptide EYYKEYYKEYYK, modified therapeutic ordered peptide D-Ala-EYYKEYYKEYYK-amide, or Copaxone to block the proliferation of a PLPp139-151 specific T cell line was measured in a proliferation assay."}}, "note": "Entries after “also recorded” stand apart in the source; their conditions may differ. Like-named read-outs stand apart in the source and are kept apart here. Non-standard residues stand in square brackets, D forms with d. No end group written: not given here.", "data": [{"substance": "MBP p87-99: myelin basic protein peptide 87-99, immunodominant epitope (SRPHLIRLFSRDA; UniProt P02686 87-99, looked up, fragment)", "values": [{"measurement": "inhibition of autoantibody binding to MBP", "setting": "[1]", "result": "more than 95%"}]}, {"substance": "EYYKEYYKEYYK [MBP therapeutic ordered peptide, motif [EYYK]n with n=3]", "values": [{"measurement": "blocking of binding of native PLP peptide to mouse MHC class II (mean fluorescence intensity)", "setting": "mouse MHC class II", "result": "comparable amount of inhibition"}, {"measurement": "relapse rates per mouse", "setting": "EAE in mice", "result": "reduce relapse rates similarly"}, {"measurement": "EAE development, mean disease score", "setting": "EAE in Lewis rats [2]", "result": "prevents the development of EAE; also recorded: effective in preventing and treating experimental autoimmune encephalomyelitis"}, {"measurement": "blocking of binding of native MBP peptide to rat MHC class II (mean fluorescence intensity)", "setting": "rat MHC class II", "result": "comparable amount of inhibition"}]}, {"substance": "D-Ala-EYYKEYYKEYYK-amide ([dA]EYYKEYYKEYYK-NH2; N-terminus assumed; SMILES C[C@@H](N)C(=O)N[C@@H](CCC(=O)O)C(=O)N[C@@H](Cc1ccc(O)cc1)C(=O)N[C@@H](Cc1ccc(O)cc1)C(=O)N[C@@H](CCCCN)C(=O)N[C@@H](CCC(=O)O)C(=O)N[C@@H](Cc1ccc(O)cc1)C(=O)N[C@@H](Cc1ccc(O)cc1)C(=O)N[C@@H](CCCCN)C(=O)N[C@@H](CCC(=O)O)C(=O)N[C@@H](Cc1ccc(O)cc1)C(=O)N[C@@H](Cc1ccc(O)cc1)C(=O)N[C@@H](CCCCN)C(N)=O) [substituted (modified) MBP therapeutic ordered peptide]", "values": [{"measurement": "IL4 production", "setting": "[3]", "result": "increased production of IL4 and IL10"}, {"measurement": "IL10 production", "setting": "[3]", "result": "increased production of IL4 and IL10"}, {"measurement": "blocking of EAE induction, mean disease score", "setting": "EAE in Lewis rats [4]", "result": "more effective in blocking EAE induction than the un-substituted therapeutic ordered peptide; also recorded: superiority of the D-Ala form of the ordered peptide over the non-substituted form; also recorded: nearly reaches the efficacy of Copaxone"}, {"measurement": "blocking of binding of native PLP peptide to mouse MHC class II (mean fluorescence intensity)", "setting": "mouse MHC class II", "result": "more effective in blocking either MHC than the non-D-ala form"}, {"measurement": "blocking of binding of native PLP peptide to mouse MHC class II (mean fluorescence intensity)", "setting": "mouse MHC class II; listed as D-Ala EYYK", "result": "higher affinity of binding to these MHC's than the unmodified EYYK; also recorded: approaches the binding achieved by Copaxone"}, {"measurement": "blocking of binding of native PLP peptide to mouse MHC class II (mean fluorescence intensity)", "setting": "mouse MHC class II; listed as D-ala-EYYK", "result": "comparable amount of inhibition"}, {"measurement": "reduction in T cell proliferation", "setting": "[5]", "result": "dose dependent reduction in T cell proliferation; also recorded: exceeds the reduction in T cell proliferation for either the unmodified ordered peptide or for Copaxone"}, {"measurement": "reduction in T cell proliferation", "setting": "[5]; listed as D-Ala EYYK", "result": "dose dependent reduction in T cell proliferation; also recorded: exceeds the reduction in proliferation with either the unmodified ordered peptide or Copaxone"}, {"measurement": "reduction in T cell proliferation", "setting": "[5]; listed as D-ala EYYK", "result": "more effective in blocking T cell proliferation than the unmodified EYYK"}, {"measurement": "blocking of binding of native MBP peptide to rat MHC class II (mean fluorescence intensity)", "setting": "rat MHC class II", "result": "more effective in blocking either MHC than the non-D-ala form"}, {"measurement": "blocking of binding of native MBP peptide to rat MHC class II (mean fluorescence intensity)", "setting": "rat MHC class II; listed as D-Ala EYYK", "result": "higher affinity of binding to these MHC's than the unmodified EYYK; also recorded: approaches the binding achieved by Copaxone"}, {"measurement": "blocking of binding of native MBP peptide to rat MHC class II (mean fluorescence intensity)", "setting": "rat MHC class II; listed as D-ala-EYYK", "result": "comparable amount of inhibition"}]}, {"substance": "OVA: ovalbumin, control known to cause an induction of Th1 type of T cells after immunization [reference compound]", "values": [{"measurement": "IL4 production", "setting": "[3]", "result": "did not cause an increase in these cytokines"}, {"measurement": "IL10 production", "setting": "[3]", "result": "did not cause an increase in these cytokines"}]}]}
